Data: ChEMBL document CHEMBL1132572 (J Med Chem, 1999)

Columns and labels:
MT2 = test: Lethal dose (LD5) concentration inhibiting growth of MT-2 cells by 5%; type: toxicity, cell-based; conditions: human
[1] = test system: Human immunodeficiency virus 1; test: Concentration that inhibits Human Immunodeficiency Virus Type 1 (HIV-1)-induced death of MT-2 cells; type: functional, MT2; conditions: read-out: ED50 (the source's name)
[2] = molecular target: Human immunodeficiency virus type 1 integrase (Human immunodeficiency virus 1, UniProt Q7ZJM1)
Description: Inhibitory activity against Human Immunodeficiency Virus Type 1 integrase (HIV-1 IN) in the disintegration assay.

[3] = test system: Human immunodeficiency virus 1; conditions: read-out: ED50
[4] = test system: Human immunodeficiency virus 1; test: microbe, parasite or virus in culture; conditions: Human immunodeficiency virus 1, read-out: ED50
[5] = test system: Human immunodeficiency virus 1; conditions: read-out: ED50; remark: listed apart in the source
[6] = Human immunodeficiency virus 1, MT2

Row | Structure (SMILES) | LD5 (MT2) | EC50 [1, 6] | IC50 [2] | EC50 [3] | EC50 [4] | EC50 [1] | EC50 [5]
1 | O=C(O)C(O)C(O)C(=O)O (stereo not drawn) | > 1000 µM | > 1000 µM | – | – | – | – | –
2 | O=C(/C=C/c1ccc(O)c(O)c1)Oc1cc(OC(=O)/C=C/c2ccc(O)c(O)c2)cc(C(=O)O)c1 | 100 µM | > 75 µM | 6.9 µM | – | – | – | –
3 | O=C(OC(C(=O)O)C(OC(=O)c1ccc(F)c(F)c1)C(=O)O)c1ccc(F)c(F)c1 (stereo not drawn) | 28.9 µM | > 59.2 µM | – | – | – | – | –
4 | O=C(OC(C(=O)O)C(OC(=O)c1cc(O)ccc1O)C(=O)O)c1cc(O)ccc1O (stereo not drawn) | > 238 µM | > 238 µM | – | – | – | – | –
5 | O=C(/C=C\c1ccc(O)c(O)c1)OC1CCC(OC(=O)/C=C\c2ccc(O)c(O)c2)CC1 (stereo not drawn) | 20.5 µM | > 45 µM | 1.01 µM | – | – | – | –
6 | O=C(OC(C(=O)O)C(OC(=O)c1cc(O)cc(O)c1)C(=O)O)c1cc(O)cc(O)c1 (stereo not drawn) | > 119 µM | > 119 µM | – | – | – | – | –
7 | O=C(/C=C/c1cccc(O)c1)OC(C(=O)O)C(OC(=O)/C=C/c1cccc(O)c1)C(=O)O (stereo not drawn) | 566 µM | > 283 µM | – | – | – | – | –
8 | O=C(/C=C/c1ccc(O)c(O)c1)OC(C(=O)OC(c1ccccc1)c1ccccc1)C(OC(=O)/C=C/c1ccc(O)c(O)c1)C(=O)OC(c1ccccc1)c1ccccc1 (stereo not drawn) | 16.1 µM | > 37.2 µM | – | – | – | – | –
9 | COc1ccc(/C=C/C(=O)OC(C(=O)O)C(OC(=O)/C=C/c2ccc(OC)c(OC)c2)C(=O)O)cc1OC (stereo not drawn) | 89 µM | > 178 µM | – | – | – | – | –
10 | O=C(Cc1ccc(O)c(O)c1)OC(C(=O)O)C(OC(=O)Cc1ccc(O)c(O)c1)C(=O)O (stereo not drawn) | 70 µM | – | 0.88 µM | 15.6 µM | > 62.5 µM | 35 µM | –
11 | O=C(/C=C/c1ccc(O)c(O)c1)OC1CCCC(OC(=O)/C=C/c2ccc(O)c(O)c2)C1 (stereo not drawn) | 9.1 µM | > 34.1 µM | 1.8 µM | – | – | – | –
12 | O=C(/C=C\c1ccc(O)c(O)c1)OC1CCCCC1OC(=O)/C=C\c1ccc(O)c(O)c1 (stereo not drawn) | 22.7 µM | > 90.9 µM | 8.36 µM | – | – | – | –
13 | O=C(/C=C/c1ccc(O)c(O)c1)OCCCCOC(=O)/C=C/c1ccc(O)c(O)c1 | 121 µM | > 242 µM | > 10 µM | – | – | – | –
14 | O=C(CCc1ccc(O)c(O)c1)OC(C(=O)O)C(OC(=O)CCc1ccc(O)c(O)c1)C(=O)O (stereo not drawn) | > 263 µM | – | 2.38 µM | 7.8 µM | – | 8.4 µM | 31.2 µM
15 | O=C(/C=C/c1ccc(O)c(O)c1)OC1C[C@](O)(C(=O)O)C[C@@H](O)[C@H]1OC(=O)/C=C/c1ccc(O)c(O)c1 (stereo partly drawn) | 145 µM | 4 µM | 0.6 µM | – | – | – | –
16 | O=C(/C=C/c1ccc(O)c(O)c1)OC1CCC(OC(=O)/C=C/c2ccc(O)c(O)c2)CC1 (stereo not drawn) | 170 µM | > 341 µM | 1.03 µM | – | – | – | –
17 | O=C(/C=C/c1ccc(O)c(O)c1)O[C@@H]1C[C@](O)(C(=O)O)C[C@@H](OC(=O)/C=C/c2ccc(O)c(O)c2)[C@H]1O | 290 µM | 2 µM | 1.3 µM | – | – | – | –

Row | Structure (SMILES) | LD5 (MT2) | EC50 [1, 6] | IC50 [2] | EC50 [3] | EC50 [4] | EC50 [1] | EC50 [5]
18 | O=C(/C=C/c1ccc(O)c(O)c1)OCCOC(=O)/C=C/c1ccc(O)c(O)c1 | 194 µM | > 388 µM | > 10 µM | – | – | – | –
19 | O=C(/C=C/c1ccc(O)c(O)c1)OCC(OC(=O)/C=C/c1ccc(O)c(O)c1)C(=O)O (stereo not drawn) | 145 µM | 2.3 µM | 0.52 µM | – | – | – | –
20 | O=C(/C=C/c1ccc(O)c(O)c1)OCCCOC(=O)/C=C/c1ccc(O)c(O)c1 | 117.5 µM | > 350 µM | > 10 µM | – | – | – | –
21 | O=C(/C=C/c1ccc(O)c(O)c1)OC1CCCCC1OC(=O)/C=C/c1ccc(O)c(O)c1 (stereo not drawn) | 63.6 µM | > 136 µM | > 10 µM | – | – | – | –
22 | O=C(/C=C/c1ccc(O)cc1)OC(C(=O)O)C(OC(=O)/C=C/c1ccc(O)cc1)C(=O)O (stereo not drawn) | 114 µM | > 227 µM | – | – | – | – | –
23 | O=C(OC(C(=O)O)C(OC(=O)c1cc(O)c(O)c(O)c1)C(=O)O)c1cc(O)c(O)c(O)c1 (stereo not drawn) | 2.7 µM | – | 0.97 µM | 0.29 µM | – | 0.66 µM | 31.2 µM
24 | O=C(OC(C(=O)O)C(OC(=O)c1cccc(O)c1O)C(=O)O)c1cccc(O)c1O (stereo not drawn) | 19 µM | > 38 µM | 1.07 µM | – | – | – | –
25 | O=C(/C=C/c1ccc(O)c(O)c1)O[C@@H]1C[C@@](O)(C(=O)O)CC(O)[C@@H]1OC(=O)/C=C/c1ccc(O)c(O)c1 (stereo partly drawn) | 116 µM | 12 µM | 1.4 µM | – | – | – | –
26 | O=C(OC(C(=O)O)C(OC(=O)c1ccc(O)c(O)c1)C(=O)O)c1ccc(O)c(O)c1 (stereo not drawn) | 90 µM | – | 0.43 µM | 0.82 µM | > 52.5 µM | 0.95 µM | –
27 | O=C(/C=C/c1ccccc1)OC(C(=O)O)C(OC(=O)/C=C/c1ccccc1)C(=O)O (stereo not drawn) | > 245 µM | – | – | – | – | – | –
28 | O=C(/C=C\c1ccc(O)c(O)c1)OC1CCCC(OC(=O)/C=C\c2ccc(O)c(O)c2)C1 (stereo not drawn) | 36.4 µM | > 68.2 µM | 1.63 µM | – | – | – | –
29 | O=C(/C=C/c1ccc(O)c(O)c1)O[C@@H]1CC(OC(=O)/C=C/c2ccc(O)c(O)c2)(C(=O)O)C[C@@H](O)C1O (single isomer, unassigned) [CYNARIN] | 145 µM | 4 µM | 1.6 µM | – | – | – | –
30 | O=C(/C=C/c1ccc(O)c(O)c1)OC(C(=O)O)C(OC(=O)/C=C/c1ccc(O)c(O)c1)C(=O)O (stereo in doubt; 1 (L)) | 264 µM | – | – | – | – | – | –
31 | O=C(O)/C=C/c1ccc(O)c(O)c1 [CAFFEIC ACID] | 1389 µM | > 1390 µM | – | – | – | – | –
32 | O=C(/C=C/c1ccc(O)c(O)c1)O[C@H](C(=O)O)[C@H](OC(=O)/C=C/c1ccc(O)c(O)c1)C(=O)O [CHICORIC ACID] | 115 µM | – | – | – | – | – | –
33 | O=C(/C=C/c1ccc(O)c(O)c1)O[C@@H]1C[C@](O)(C(=O)O)C[C@@H](O)[C@H]1O [CHLOROGENIC ACID] | 249 µM | > 497 µM | – | – | – | – | –
34 | O=C(O)[C@]1(O)C[C@@H](O)[C@@H](O)[C@H](O)C1 [QUINIC ACID] | 907 µM | > 1820 µM | – | – | – | – | –
